Experimental findings from patent US20060029563A1, “Cutanceous metabolic bio-activator” (Jean-Noel Thorel, priority 2002, published 2006) are described below.

Data set [1] is described as follows: prior cell viability test on normal human keratinocytes. It is filed as cell-based. The conditions noted are these: after 48 h of contact, highest 2 concentrations, 0.0001% and 0.01%. Here is the method:
In order to determine the concentrations applicable in the context of the trial, a prior cell viability test is carried out on normal human keratinocytes.
L-citrullyl-L-arginine is dissolved in water and the final concentration is fixed at 0.1%.
6 dilutions of L-citrullyl-L-arginine from 10^−4% to 10^−2% are brought into contact with the cells for 24 h and 48 h. A “water” condition is realized as a control.
For the trial, the L-citrullyl-L-arginine will be tested at the highest 2 concentrations that allow the cell viability to be maintained at a level greater than 80%, after 48 h of contact, i.e. 0.0001% and 0.01%.

The test system of data set [2] is secretion of endothelin-1 by normal human keratinocytes. The experiment in a line: endothelin-1 secretion by keratinocytes (ELISA), nonirradiated or after UV B irradiation. The format is cell-based. The following applies: for increase in the basal secretion of endothelin-1 compared with the water control: nonirradiated. The protocol: The trial is carried out on an in vitro culture of normal human keratinocytes seeded at a density of 10^5 cells/well in 6-well plates.
The keratinocytes, seeded in 6-well plates at a density of 10^5 cells/well, are cultured in standard medium (Epilife Sigma) for 48 h. Before irradiation, the culture medium is removed, the cells are rinsed with PBS buffer, and 1 ml thereof is left in contact with the cells for the irradiation. The keratinocytes are subjected to a UV B irradiation (312 nm) of 20 mJ/cm^2. An identical nonirradiated condition is realized in parallel.
After irradiation (and on the nonirradiated parallel), the PBS is removed and the cells are placed under the various conditions studied: • control of water in the culture medium, […]
Each condition is realized in triplicate.
After contact for 24 h or 48 h after irradiation, the conditioned culture supernatants are recovered. The amount of endothelin-1 secreted by the keratinocytes is measured on 100 μl of supernatant by means of an ELISA technique (R&D Systems, Abingdon, UK). The endothelin-1 levels are calculated by means of the standard curve prepared with synthesized human endothelin-1. The results are expressed in pg of endothelin-1 standardized with respect to the protein concentration (pg ET-1/mg of proteins).

Data set [3] has as its system HaCaT cells. The experiment in a line: growth of HaCaT cells, WST-1 conversion method. The format is cell-based, human. Here is the method:
The objective of this trial is to evaluate the effect of the combination ATP+peptides, added to a culture medium, on the growth of an immortalized line of human […], HaCaT cells.
The study is carried out on a culture prepared in the standard culture medium for HaCaT cells, DMEM (Sigma) in the presence of fetal calf serum (SVF) at 2 or 10%.
The HaCaT cells are seeded at low density in a 96-well plate in the standard medium (DMEM+10% SVF) and grow for 24 h after seeding in this medium.
On the 2nd day, the cells are placed under the various conditions studied.
The test concentrations in terms of ATP, β-alanyl-L- histidine (Carnosine) and L-citrullyl-L-arginine (exsy- algine) are determined subsequent to preliminary cytotoxicity studies.
The following conditions are prepared: • A control condition: culture medium alone+SVF • A condition consisting of β-alanyl-L-histidine alone at 0.5%. • A condition consisting of L-citrullyl-L-arginine are known at 0.5%. • A condition consisting of ATP alone at 1 μg/ml. • A condition consisting of ATP (1 μg/ml)+β-alanyl-L-histidine (0.5%). • A condition consisting of ATP (1 μg/ml)+L-citrullyl-L-arginine (0.5%) • A condition consisting of ATP (1 μg/ml)+β-alanyl-L-histidine (0.5%)+L- citrullyl-L-arginine (0.5%).
These various conditions are prepared both in the DMEM containing 2% SVF and the DMEM containing 10% SVF.
Each condition is prepared in triplicate. The media are not renewed in the course of the experiment.
The cell density is evaluated 24 h after seeding of the cells, before the cells are brought into contact with the various study conditions (=T0), and the growth of the HaCaT cells is then evaluated on the 2nd, 5th and 7th days of culture by means of the WST-1 conversion method (reading at 450 nm).
The cell growth is objectified by measuring the cell viability at various times of the experiment. The results obtained give the percentage cell viability calculated with respect to the initial cell density at T0, for which it is estimated that the cell density is equal to 100%. The effects of the various products on cell growth are analyzed at the various times of the experiment, relative to the nontreated control at the same time of the experiment.

Data set [4] concerns normal human melanocytes. In words: comet assay on UVA-irradiated normal human melanocytes. It is filed as cell-based. The following applies: 4 mM each. Here is the method: Cultures of normal human melanocytes (MHNs) are prepared from fore skins of infants and of newborns suffering from phimosis. The melanocytes obtained from skin fragments are placed in MCDB 153 medium (Sigma St Louis, Mo., USA) supplemented with 30 μg/ml of bovine pituitary extract (BPE) (Life Technologies, Paisley, England), 2% of fetal calf serum (SVF) (Dominique Dutscher, Brumath, France), 16 nM of phorbol-12-myristate-13-acetate (Sigma), 5 μg/ml of insulin and 1.1 μM of hydrocortisone (Sigma). The cultures are maintained in an incubator at 37° C. and-in-an atmosphere containing 5% CO2. Pure cultures of melanocytes are obtained after 2 to 3 weeks.
All the compositions tested are solubilized in DMSO at the maximum concentrations permitted. Preliminary trials are carried out in order to determine the subtoxic concentrations on the keratinocytes. The final concentration of DMSO is always less than 2%.
The melanocytes are brought into contact with the product for 30 min at 37° C., and are then irradiated with UVA radiation. The UVA irradiations are generated by means of a Bio-Sun UV-irradiator (Vilbert Lourmat, Marne la Vallée). This device is equipped with monochromatic lamps that emit a wavelength of 312 nm and/or 365 nm. The lamps deliver a calculated energy by means of an RMW-365/312 radiometer. The energies delivered are 0.8 J/cm^2 for the UVA range. The “comet” assay is carried out immediately after exposure. Two types of controls are included in these experiments: • negative controls: melanocytes that are not treated but […]; melanocytes treated for 30 min with the composition tested, but not irradiated. • Positive control: melanocytes that are not treated but are irradiated.
After treatment with a typsin/EDTA mixture (0.05%/0.02%) for 2 to 3 minutes, the cultures are 15 recovered by centrifugation and placed in PBS buffer without Ca++ and without Mg++ (Sigma). Following a second centrifugation, the cells (4.5-5.0×10^4 cells) are suspended in 0.5% low melting point (LMP) agarose (Sigma). The mixture is directly deposited onto microscope slides coated with a prelayer of agarose (1.6%) dried overnight at ambient temperature and freshly precoated with a second layer of agarose (0.8%).
The protocol for the comet assay is that of De Meo et al., incorporating the “dry slide” technique. After the irradiations, the slides are placed in a lysis bath (2.5 M NaCl, 100 mM Na2EDTA, 10 mM Tris-HCl, pH 10, 1% of sodium sarcosinate, 1% of triton X-100 and 10% of DMSO). The cell lysis is performed at 4° C. for 60 minutes, followed by denaturation of the DNA at ambient temperature for 20 min in a strongly alkaline solution (1 mM Na2EDTA and 300 mM NaOH, pH>13.0). After electrophoresis (25 V, 300 mA) for 20 min., the slides are neutralized with the Tris-HCl buffer (0.4 M; pH 7.4) and dehydrated in absolute ethanol or methanol.
The slides are stained with ethidium bromide solution (75 μl of 2 μg/ml) and observed using a BH2-RFL fluorescence microscope (Olympus, Japan) equipped with a 20BG-W dichroic filter (excitation: 515-560 nm; emission: 590 nm) and with an Apo D-Plan 20× objective. The image analysis is carried out with a high sensitivity monochrome CCD camera (Cohu 4912-5000) coupled to a Matrox IP-8 acquisition board. The entire assembly is controlled by means of the Fenestra Komet software (Kinetic Imaging, Liverpool, UK, version 3.1).
A total of 100 cells per sample (50 cells/slide) is analyzed. The parameter used is “tail DNA”, which is defined as the percentage of DNA in the tail of the “comet”. For each series of experiments, a negative control (nonirradiated cells) and a positive control (irradiated cells without composition tested) are included.
Nonlinear regressions based on a χ^2 function are calculated directly from the TM (tail moment) distribution frequencies for each sample. Specifically, Bauer et al. have recently shown that these distributions follow a χ^2 function. […]

[5] abbreviates: NI: nonirradiated melanocytes pretreated 30 min.
The mark [6] stands for this setting: melanocytes irradiated with UVA (0.8 J/cm^2), pretreated 30 min.

As usually defined, the viability is a read-out of living cells in per cent, often relative to untreated cells.

SMILES strings stand for the structures. Where a SMILES comes first, the peptide text is derived from it. [ ]: non-standard residue; d: D form. Cit = NC(=O)NCCC[C@H](N)C(=O)O

`N=C(N)NCCC[C@H](NC(=O)[C@@H](N)CCCNC(N)=O)C(=O)O` [L-citrullyl-L-arginine] (H-[Cit]-Arg-OH): the viability at 48 h in data set [1] is > 80%. Moreover, in data set [2] (0.01%, conclusion), the “effect on the secretion of endothelin-1 (in words)” value is listed as “considerable activating effect”. Besides, the “increase in secretion of endothelin-1 compared with the irradiated water control” value in data set [2] (UV B 20 mJ/cm^2, 24 h, 0.0001%) is given as 6%; in data set [2] (UV B 20 mJ/cm^2, 24 h, 0.001%) it was 28%; in data set [2] (UV B 20 mJ/cm^2, 48 h, 0.0001%), 4%; in data set [2] (UV B 20 mJ/cm^2, 48 h, 0.01%), 63%. Also, the “increase in the basal secretion of endothelin-1 compared with the water control” value in data set [2] (24 h, 0.0001%) is given as 20%; in data set [2] (24 h, 0.01%) it was 70%; in data set [2] (48 h, 0.0001%) it was 26%; in data set [2] (48 h, 0.01%), 82%. The “cell growth relative to the nontreated control” value in data set [3] (after 2 days of culture, 0.1% and 0.5%) is given as “+5%”. Besides, in data set [3] (after 5 days of culture), the “effect on cell viability / growth (in words)” value was “does not stimulate cell growth”. Further, the “OTM-χ^2” value in data set [4] (setting [5]) stood at 2.06 ± 0.02; in data set [4] (setting [6]), 2.22 ± 0.20. Besides, the “Degree of protection (%)” value in data set [4] (setting [6]) came to 67.7%.
For `NCCC(=O)N[C@@H](Cc1c[nH]cn1)C(=O)O` [β-alanyl-L-histidine], the “effect on cell growth (in words)” value in data set [3] (after 2 days of culture, 0.1%) is “no effect on growth”. Besides, the “cell growth relative to the nontreated control” value is reported as “+22%” in data set [3] (after 2 days of culture, 0.5%, 2% SVF) and “+12%” in data set [3] (after 5 days of culture, 0.5%). Moreover, in data set [3] (conclusion of the trial, at the concentrations tested), the “effect on cell viability / growth (in words), conclusion” value is on record as “exerts a stimulatory effect on cell growth”.
Consider `Nc1ncnc2c1ncn2[C@@H]1O[C@H](COP(=O)(O)OP(=O)(O)OP(=O)(O)O)[C@@H](O)[C@H]1O` [ATP, adenosine triphosphate], for which the “effect on endothelin-1 synthesis (in words)” value in data set [2] (ATP alone) is listed as “do not show any effect”. The “change in cell viability” value in data set [3] (ATP alone, after 2 to 5 days of contact) is −5 to −10%. Further, the “effect on cell viability (in words)” value in data set [3] (after 2 days of culture, ATP 1 μg/ml) was “substantially decreases cell viability”. In addition, the “effect on cell viability / growth (in words)” value in data set [3] (after 5 days of culture) is reported as “substantially decreases cell viability”. Moreover, the entries for the “OTM-χ^2” value in data set [4] (setting [5]) and in data set [4] (setting [6]) were 2.08 ± 0.02 and 6.31 ± 0.38, respectively. Further, the “Degree of protection (%)” value in data set [4] (setting [6]) was found to be 14.6%.
